Eleven compounds from the SangsterLogP compilation can be followed below.

What is called logP is the decadic logarithm of the partition coefficient of the neutral form, usually between octanol and water. A higher logP goes with a more lipophilic compound. In the case of `COC1(NC(=O)C2SC(=C(C#N)C(=O)O)S2)C(=O)N2C(C(=O)O)=C(CSc3nnnn3C)CSC21` (stereo unspecified), the logP was found to be 1.73.

`COC1(NC(=O)C2SC(C(C(=O)O)C(=O)c3ccccc3)S2)C(=O)N2C(C(=O)O)=C(CSc3nnnn3C)CSC21` (stereo unspecified): the logP came out at 2.98.

As to `COC1(NC(=O)C2SC(=C(C(=O)O)S(N)(=O)=O)S2)C(=O)N2C(C(=O)O)=C(CSc3nnnn3C)CSC21` (stereo unspecified), the logP was determined as 1.25.

In turn, `COC1(NC(=O)C2SC(=C(C)C(=O)O)S2)C(=O)N2C(C(=O)O)=C(CSC3=NN=NN(C)C3)CSC21` (stereo unspecified) showed a logP of 2.66.

Take `COC1(NC(=O)C2SC(=CC(=O)O)S2)C(=O)N2C(C(=O)O)=C(CSc3nnnn3C)CSC21` (stereo unspecified): the logP is 2.19.

On to `COC1(NC(=O)C2SC(=C(SC)C(=O)O)S2)C(=O)N2C(C(=O)O)=C(CSc3nnnn3C)CSC21` (stereo unspecified), for which the logP came out at 2.6.

For `COC1(NC(=O)CSc2snc(O)c2C(=O)O)C(=O)N2C(C(=O)O)=C(CSc3nnnn3C)CSC21` (stereo unspecified), the log partition coefficient (logP) is 1.43.

For the compound `CCSC(C(=O)O)=C1SC(C(=O)NC2(OC)C(=O)N3C(C(=O)O)=C(CSc4nnnn4C)CSC32)S1` (stereo unspecified), the logP amounted to 2.86.

As to `CNC(=O)C(C(=O)O)=C1SC(C(=O)NC2(OC)C(=O)N3C(C(=O)O)=C(CSc4nnnn4C)CSC32)S1` (stereo unspecified), the logP was determined as 1.82.

Turning to `COC(C(=O)O)=C1SC(C(=O)NC2(OC)C(=O)N3C(C(=O)O)=C(CSc4nnnn4C)CSC32)S1` (stereo unspecified), the logP turned out to be 2.

`COC1(NC(=O)C2SC(C(C(=O)O)C(=O)N(C)C)S2)C(=O)N2C(C(=O)O)=C(CSc3nnnn3C)CSC21` (stereo unspecified) registered a logP of 2.01.
